According to paper PMC9127186, “Molecular Basis Underlying Hepatobiliary and Renal Excretion of Phenolic Acids of Salvia miltiorrhiza Roots (Danshen)” (Frontiers in Pharmacology, 2022):

Assays:
rat Bcrp = target: T1, rat Bcrp (Rattus norvegicus, UniProt Q80W57); assay: Vesicular transport assay, inside-out membrane vesicles expressing rat Bcrp; conditions: 10 min
T1 sequence (Q80W57 1-657): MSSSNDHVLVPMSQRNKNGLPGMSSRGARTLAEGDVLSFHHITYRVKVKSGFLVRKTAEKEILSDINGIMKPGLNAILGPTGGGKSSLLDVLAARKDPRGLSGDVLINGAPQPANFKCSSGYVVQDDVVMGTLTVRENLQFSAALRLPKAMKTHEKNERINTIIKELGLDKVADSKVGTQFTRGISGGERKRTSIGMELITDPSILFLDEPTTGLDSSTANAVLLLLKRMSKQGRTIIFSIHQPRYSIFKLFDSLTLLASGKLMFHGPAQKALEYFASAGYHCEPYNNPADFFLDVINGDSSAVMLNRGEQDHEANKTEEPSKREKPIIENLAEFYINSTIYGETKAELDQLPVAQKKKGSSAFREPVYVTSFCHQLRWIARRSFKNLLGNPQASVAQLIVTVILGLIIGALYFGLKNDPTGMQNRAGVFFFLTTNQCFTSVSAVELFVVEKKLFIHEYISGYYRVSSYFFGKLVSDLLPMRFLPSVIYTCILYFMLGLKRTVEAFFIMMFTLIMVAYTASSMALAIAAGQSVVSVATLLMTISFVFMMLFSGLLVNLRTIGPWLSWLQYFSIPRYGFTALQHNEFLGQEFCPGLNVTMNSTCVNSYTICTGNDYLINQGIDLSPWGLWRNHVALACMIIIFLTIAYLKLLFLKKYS
Procedure: Inside-out membrane vesicles (5 mg protein/mL), prepared from insect cells expressing human multidrug resistance-associated protein (MRP) 2, MRP3, MRP4, breast cancer resistance protein (BCRP), bile salt export pump (BSEP), and multidrug resistance protein (MDR) one and rat Mrp2, Mrp4, Bcrp, and Bsep, and vesicles (5 mg protein/mL; prepared from the insect cells expressing no ABC transporter; serving as negative control) were obtained from Genomembrane (Kanazawa, Japan).
The test Danshen compounds at 100 µM final concentration were separately incubated with the membrane vesicles for 10 min. Buffer C (50 mM MOPS-tris, 70 mM KCl, 7.5 mM MgCl2, pH 7.0) was used for preincubation and incubation, while buffer D (40 mM MOPS-tris, 70 mM KCl, pH 7.0) was used for vesicle washing. The transport rate (pmol/mg protein/min) of the test Danshen compound was calculated using Equation (2): Transport=(CV×VV)/T/WV (2) where C V, V V, T, and W V represent concentration of the compound in vesicular lysates supernatant (μM), volume of the lysates (μL), incubation time (10 min), and amount of vesicle protein amount per well (0.05 mg), respectively. Differential transport of the test Danshen compound between ATP-containing vesicles and AMP-containing vesicles was defined as net transport ratio (TransportATP/TransportAMP ratio). […] All the incubation samples were analyzed by liquid chromatography/mass spectrometry.

rat Ntcp = target: T2, rat Ntcp (Rattus norvegicus, UniProt P26435); assay: Cellular transport assay, HEK-293 cells expressing rat Ntcp; conditions: Danshen phenolic acid at 100 μM final concentration, 10 min; rat Ntcp-transfected vs mock cells
T2 sequence (P26435 1-362): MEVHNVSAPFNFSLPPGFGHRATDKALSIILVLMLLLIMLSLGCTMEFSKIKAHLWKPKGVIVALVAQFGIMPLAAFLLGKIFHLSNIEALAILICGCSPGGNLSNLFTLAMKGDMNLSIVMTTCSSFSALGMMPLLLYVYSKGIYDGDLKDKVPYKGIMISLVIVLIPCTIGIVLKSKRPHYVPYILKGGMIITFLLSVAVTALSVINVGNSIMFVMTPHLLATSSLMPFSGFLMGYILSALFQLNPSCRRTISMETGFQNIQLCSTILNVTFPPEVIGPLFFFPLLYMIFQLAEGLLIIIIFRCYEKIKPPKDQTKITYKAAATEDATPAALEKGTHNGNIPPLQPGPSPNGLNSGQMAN

rat Oct2 = target: T3, rat Oct2 (Rattus norvegicus, UniProt Q9R0W2); conditions: 10 min, 100 μM
T3 sequence (Q9R0W2 1-555): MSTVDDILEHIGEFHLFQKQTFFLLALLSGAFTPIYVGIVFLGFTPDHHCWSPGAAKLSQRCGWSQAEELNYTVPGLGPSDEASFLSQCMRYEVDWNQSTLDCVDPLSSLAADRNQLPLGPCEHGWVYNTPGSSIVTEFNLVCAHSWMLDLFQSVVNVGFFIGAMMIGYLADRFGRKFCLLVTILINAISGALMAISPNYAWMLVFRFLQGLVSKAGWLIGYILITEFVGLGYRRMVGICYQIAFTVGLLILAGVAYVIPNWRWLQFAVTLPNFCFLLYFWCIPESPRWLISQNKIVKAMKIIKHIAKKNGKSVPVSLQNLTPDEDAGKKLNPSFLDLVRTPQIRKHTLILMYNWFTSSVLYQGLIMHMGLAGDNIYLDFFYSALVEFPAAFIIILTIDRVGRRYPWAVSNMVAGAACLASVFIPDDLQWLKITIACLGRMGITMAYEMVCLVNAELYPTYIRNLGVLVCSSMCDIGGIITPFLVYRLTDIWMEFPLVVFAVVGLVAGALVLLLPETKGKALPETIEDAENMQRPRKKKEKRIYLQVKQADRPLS

rat Octn2 = target: T4, rat Octn2 (Rattus norvegicus, UniProt O70594); conditions: 10 min, 100 μM
T4 sequence (O70594 1-557): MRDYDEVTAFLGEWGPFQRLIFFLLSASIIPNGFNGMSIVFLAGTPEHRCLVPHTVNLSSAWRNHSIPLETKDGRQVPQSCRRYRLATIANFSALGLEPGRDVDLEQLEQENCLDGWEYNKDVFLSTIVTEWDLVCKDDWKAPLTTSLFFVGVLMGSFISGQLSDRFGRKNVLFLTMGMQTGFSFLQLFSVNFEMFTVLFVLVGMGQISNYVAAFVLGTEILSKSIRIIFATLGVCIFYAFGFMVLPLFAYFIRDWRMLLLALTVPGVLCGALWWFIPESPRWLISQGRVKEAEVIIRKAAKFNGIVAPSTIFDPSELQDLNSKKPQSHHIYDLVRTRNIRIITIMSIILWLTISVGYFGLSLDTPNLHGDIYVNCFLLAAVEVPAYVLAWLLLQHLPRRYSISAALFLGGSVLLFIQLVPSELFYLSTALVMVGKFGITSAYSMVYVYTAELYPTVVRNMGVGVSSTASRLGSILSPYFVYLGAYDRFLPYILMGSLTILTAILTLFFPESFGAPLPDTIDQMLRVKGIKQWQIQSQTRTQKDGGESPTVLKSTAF

[1] = Danshen phenolic acid at 100 μM final concentration, rat Bcrp vesicles

| Molecule | TransportATP/TransportAMP ratio (net transport ratio) (rat Bcrp; [1]) | TransportTC/TransportMC ratio (net transport ratio) (rat Ntcp) | TransportTC/TransportMC ratio (net transport ratio) (rat Oct2) | TransportATP/TransportAMP ratio (net transport ratio) (rat Bcrp; rat, not told, 100 μM, pH 7) | TransportTC/TransportMC ratio (net transport ratio) (rat Octn2) |
| --- | --- | --- | --- | --- | --- |
| salvianolic acid B | 1.13 ± 0.14 | 1.90 ± 0.02 |  |  |  |
| O=C(O)Cc1c(/C=C/C(=O)O[C@H](Cc2ccc(O)c(O)c2)C(=O)O)ccc(O)c1O [Salvianolic acid D, salvianolic acid D] |  | 1.49 ± 0.23 |  |  |  |
| O=C(/C=C/c1ccc(O)c2c1[C@H](C(=O)O)[C@@H](c1ccc(O)c(O)c1)O2)O[C@H](Cc1ccc(O)c(O)c1)C(=O)O [Lithospermic acid, lithospermic acid] | 1.27 ± 0.20 | 1.71 ± 0.15 |  |  |  |
| O=C(/C=C/c1ccc(O)c(O)c1)O[C@H](Cc1ccc(O)c(O)c1)C(=O)O [Rosmarinic acid, rosmarinic acid] |  |  | 0.75 ± 0.32 | 1.45 ± 0.32 | 1.14 ± 0.04 |
| O=C(/C=C/c1ccc(O)c(O)c1/C=C/c1ccc(O)c(O)c1)O[C@H](Cc1ccc(O)c(O)c1)C(=O)O [Salvianolic acid A, salvianolic acid A] |  |  | 0.94 ± 0.33 | 1.31 ± 0.04 | 0.95 ± 0.44 |
| O=C(O)c1ccc(O)c(O)c1 [Protocatechuic acid, protocatechuic acid] | 0.94 ± 0.21 | 1.04 ± 0.27 |  |  |  |
